According to PMC8213057, “Targeting ALK2: An Open Science Approach to Developing Therapeutics for the Treatment of Diffuse Intrinsic Pontine Glioma” (Journal of Medicinal Chemistry, 2020):
Several values for one entry are separate records, joined by “and”; a condition that tells them apart may be missing. Equal values may be shown once.

Columns and labels:
DLK/MAP3K12 = biological target: T1, DLK/MAP3K12 (Homo sapiens, UniProt Q12852); conditions: 1 μM; Run 1, Run 2
T1 sequence (Q12852 1-859): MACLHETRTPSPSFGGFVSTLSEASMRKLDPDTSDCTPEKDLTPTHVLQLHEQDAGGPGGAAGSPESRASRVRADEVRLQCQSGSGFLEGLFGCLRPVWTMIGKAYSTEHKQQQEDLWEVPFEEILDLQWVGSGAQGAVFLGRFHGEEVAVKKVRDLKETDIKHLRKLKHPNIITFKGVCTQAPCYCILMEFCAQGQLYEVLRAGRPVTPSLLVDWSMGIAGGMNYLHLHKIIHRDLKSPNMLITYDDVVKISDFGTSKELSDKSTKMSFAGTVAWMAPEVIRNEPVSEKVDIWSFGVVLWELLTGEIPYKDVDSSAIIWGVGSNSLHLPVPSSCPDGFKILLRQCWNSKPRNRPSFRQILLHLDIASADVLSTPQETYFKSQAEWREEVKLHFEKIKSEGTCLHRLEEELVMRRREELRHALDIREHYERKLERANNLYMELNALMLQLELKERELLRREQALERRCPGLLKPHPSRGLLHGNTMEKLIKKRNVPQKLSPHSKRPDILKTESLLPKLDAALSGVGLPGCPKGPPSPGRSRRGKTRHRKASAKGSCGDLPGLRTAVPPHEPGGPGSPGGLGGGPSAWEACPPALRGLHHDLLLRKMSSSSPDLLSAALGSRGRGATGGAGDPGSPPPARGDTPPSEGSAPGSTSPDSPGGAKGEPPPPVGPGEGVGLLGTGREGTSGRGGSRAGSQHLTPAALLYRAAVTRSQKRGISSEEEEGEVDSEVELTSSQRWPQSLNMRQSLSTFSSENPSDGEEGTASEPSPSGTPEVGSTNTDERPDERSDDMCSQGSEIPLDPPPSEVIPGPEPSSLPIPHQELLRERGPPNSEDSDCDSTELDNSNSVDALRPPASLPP

EPHA7 = EPHA7 (Homo sapiens, UniProt Q15375); conditions: 1 μM; Run 1, Run 2
GSK3b = GSK3b (Homo sapiens, UniProt P49841); conditions: 1 μM; Run 1, Run 2
MEKK2 = biological target: T2, MEKK2 (Homo sapiens, UniProt Q9Y2U5); conditions: 1 μM; Run 1, Run 2
T2 sequence (Q9Y2U5 1-619): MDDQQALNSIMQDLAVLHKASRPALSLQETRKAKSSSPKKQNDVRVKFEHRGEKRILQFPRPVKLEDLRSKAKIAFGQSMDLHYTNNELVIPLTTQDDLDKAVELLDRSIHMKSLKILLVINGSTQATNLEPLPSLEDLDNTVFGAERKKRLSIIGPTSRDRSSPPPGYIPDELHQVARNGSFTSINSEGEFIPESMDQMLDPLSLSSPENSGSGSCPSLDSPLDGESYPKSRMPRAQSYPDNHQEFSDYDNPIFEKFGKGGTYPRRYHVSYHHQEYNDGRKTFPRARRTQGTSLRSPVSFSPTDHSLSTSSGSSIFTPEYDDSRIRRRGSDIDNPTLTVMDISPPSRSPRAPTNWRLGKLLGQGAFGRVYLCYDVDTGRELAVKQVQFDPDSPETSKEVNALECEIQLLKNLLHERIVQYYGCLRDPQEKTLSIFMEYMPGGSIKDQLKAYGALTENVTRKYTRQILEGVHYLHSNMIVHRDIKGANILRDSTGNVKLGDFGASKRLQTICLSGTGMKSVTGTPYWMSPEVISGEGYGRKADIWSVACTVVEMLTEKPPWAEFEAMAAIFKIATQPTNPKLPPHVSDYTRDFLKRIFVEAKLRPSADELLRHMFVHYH

ABL2/ARG = ABL2/ARG (Homo sapiens, UniProt P42684); assay: biochemical; conditions: read-out: % enzyme activity, 1 μM; Run 1, Run 2
CAMK2d = CAMK2d (Homo sapiens, UniProt Q13557); assay: biochemical; conditions: read-out: % enzyme activity, 1 μM; Run 1, Run 2
CDK5/P25 = CDK5/P25 (Homo sapiens, UniProt Q00535); assay: biochemical; conditions: read-out: % enzyme activity, 1 μM; Run 1, Run 2
DCAMKL2 = biological target: T3, DCAMKL2 (Homo sapiens, UniProt Q8N568); assay: biochemical; conditions: read-out: % enzyme activity, 1 μM; Run 1, Run 2
T3 sequence (Q8N568 1-766): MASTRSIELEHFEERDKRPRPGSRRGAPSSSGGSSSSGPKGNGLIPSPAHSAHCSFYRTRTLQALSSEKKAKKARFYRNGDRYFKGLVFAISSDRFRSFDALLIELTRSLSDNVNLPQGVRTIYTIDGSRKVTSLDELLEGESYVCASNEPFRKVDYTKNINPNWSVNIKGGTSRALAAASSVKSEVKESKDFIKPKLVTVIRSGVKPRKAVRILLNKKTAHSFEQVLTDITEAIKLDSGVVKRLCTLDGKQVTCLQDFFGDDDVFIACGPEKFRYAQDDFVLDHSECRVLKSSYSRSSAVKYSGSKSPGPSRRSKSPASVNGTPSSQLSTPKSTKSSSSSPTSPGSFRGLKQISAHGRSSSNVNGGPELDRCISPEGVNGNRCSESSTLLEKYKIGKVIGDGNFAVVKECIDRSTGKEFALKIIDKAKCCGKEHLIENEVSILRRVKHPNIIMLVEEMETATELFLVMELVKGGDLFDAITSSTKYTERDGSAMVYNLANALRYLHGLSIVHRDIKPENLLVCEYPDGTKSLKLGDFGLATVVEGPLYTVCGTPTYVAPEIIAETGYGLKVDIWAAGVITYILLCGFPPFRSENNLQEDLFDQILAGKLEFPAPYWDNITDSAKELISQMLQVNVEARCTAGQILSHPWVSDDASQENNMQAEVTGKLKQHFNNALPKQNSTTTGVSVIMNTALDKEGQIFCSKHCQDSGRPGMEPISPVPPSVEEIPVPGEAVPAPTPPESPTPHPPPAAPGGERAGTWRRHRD

CAMK2d, sequence (Q13557 whole entry): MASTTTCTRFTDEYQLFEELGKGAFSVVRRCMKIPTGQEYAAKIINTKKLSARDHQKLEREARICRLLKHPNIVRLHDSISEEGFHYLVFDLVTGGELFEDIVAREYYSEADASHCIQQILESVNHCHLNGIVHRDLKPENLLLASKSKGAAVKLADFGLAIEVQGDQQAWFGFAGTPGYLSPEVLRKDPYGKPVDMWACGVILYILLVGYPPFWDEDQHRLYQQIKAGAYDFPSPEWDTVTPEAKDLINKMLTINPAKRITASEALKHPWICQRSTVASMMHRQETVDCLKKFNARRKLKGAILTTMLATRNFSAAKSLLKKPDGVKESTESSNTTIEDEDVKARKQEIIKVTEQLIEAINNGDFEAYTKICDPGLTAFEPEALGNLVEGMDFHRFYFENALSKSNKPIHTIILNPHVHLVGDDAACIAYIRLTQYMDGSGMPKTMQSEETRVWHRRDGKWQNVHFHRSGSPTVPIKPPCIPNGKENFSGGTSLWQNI
GSK3b, sequence (P49841 whole entry): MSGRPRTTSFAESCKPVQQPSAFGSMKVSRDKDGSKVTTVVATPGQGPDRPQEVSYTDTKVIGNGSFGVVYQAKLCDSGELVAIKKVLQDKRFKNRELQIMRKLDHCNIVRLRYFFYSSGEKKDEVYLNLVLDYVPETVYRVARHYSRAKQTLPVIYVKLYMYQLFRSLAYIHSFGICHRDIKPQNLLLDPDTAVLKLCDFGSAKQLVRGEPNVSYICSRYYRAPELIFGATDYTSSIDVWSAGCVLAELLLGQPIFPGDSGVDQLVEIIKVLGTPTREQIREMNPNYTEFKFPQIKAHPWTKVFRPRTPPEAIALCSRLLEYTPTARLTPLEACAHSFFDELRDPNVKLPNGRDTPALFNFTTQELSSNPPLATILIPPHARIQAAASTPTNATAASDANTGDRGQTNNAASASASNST
ABL2/ARG, sequence (P42684 whole entry): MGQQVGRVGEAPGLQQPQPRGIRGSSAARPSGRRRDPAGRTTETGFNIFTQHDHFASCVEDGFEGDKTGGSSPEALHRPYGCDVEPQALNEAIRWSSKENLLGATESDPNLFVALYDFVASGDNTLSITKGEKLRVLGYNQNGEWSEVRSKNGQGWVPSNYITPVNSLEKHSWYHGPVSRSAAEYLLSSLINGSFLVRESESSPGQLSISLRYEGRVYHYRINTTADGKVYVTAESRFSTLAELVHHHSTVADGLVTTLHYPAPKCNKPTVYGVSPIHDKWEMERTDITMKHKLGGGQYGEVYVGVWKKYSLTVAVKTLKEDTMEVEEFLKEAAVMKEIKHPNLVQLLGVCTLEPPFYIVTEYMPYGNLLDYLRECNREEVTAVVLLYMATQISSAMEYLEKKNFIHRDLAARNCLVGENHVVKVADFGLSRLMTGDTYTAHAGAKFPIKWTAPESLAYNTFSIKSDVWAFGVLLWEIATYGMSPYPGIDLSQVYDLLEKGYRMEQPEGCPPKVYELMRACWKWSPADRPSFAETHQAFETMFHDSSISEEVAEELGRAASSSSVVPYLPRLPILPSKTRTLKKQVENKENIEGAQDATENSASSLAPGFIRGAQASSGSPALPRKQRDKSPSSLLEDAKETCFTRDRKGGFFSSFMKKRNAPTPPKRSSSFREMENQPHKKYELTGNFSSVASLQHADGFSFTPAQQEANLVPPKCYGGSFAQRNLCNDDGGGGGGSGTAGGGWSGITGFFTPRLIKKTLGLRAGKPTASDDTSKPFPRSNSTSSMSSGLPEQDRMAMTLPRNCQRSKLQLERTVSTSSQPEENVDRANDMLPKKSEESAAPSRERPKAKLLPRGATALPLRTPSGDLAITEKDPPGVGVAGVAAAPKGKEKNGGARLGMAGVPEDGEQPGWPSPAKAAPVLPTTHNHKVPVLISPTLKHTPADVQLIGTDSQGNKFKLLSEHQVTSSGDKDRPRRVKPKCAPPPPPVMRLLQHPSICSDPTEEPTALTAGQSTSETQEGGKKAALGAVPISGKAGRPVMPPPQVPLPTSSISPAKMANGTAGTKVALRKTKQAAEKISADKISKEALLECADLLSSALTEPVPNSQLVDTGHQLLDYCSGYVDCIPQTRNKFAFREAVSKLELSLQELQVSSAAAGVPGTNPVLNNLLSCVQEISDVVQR
EPHA7, sequence (Q15375 28-998): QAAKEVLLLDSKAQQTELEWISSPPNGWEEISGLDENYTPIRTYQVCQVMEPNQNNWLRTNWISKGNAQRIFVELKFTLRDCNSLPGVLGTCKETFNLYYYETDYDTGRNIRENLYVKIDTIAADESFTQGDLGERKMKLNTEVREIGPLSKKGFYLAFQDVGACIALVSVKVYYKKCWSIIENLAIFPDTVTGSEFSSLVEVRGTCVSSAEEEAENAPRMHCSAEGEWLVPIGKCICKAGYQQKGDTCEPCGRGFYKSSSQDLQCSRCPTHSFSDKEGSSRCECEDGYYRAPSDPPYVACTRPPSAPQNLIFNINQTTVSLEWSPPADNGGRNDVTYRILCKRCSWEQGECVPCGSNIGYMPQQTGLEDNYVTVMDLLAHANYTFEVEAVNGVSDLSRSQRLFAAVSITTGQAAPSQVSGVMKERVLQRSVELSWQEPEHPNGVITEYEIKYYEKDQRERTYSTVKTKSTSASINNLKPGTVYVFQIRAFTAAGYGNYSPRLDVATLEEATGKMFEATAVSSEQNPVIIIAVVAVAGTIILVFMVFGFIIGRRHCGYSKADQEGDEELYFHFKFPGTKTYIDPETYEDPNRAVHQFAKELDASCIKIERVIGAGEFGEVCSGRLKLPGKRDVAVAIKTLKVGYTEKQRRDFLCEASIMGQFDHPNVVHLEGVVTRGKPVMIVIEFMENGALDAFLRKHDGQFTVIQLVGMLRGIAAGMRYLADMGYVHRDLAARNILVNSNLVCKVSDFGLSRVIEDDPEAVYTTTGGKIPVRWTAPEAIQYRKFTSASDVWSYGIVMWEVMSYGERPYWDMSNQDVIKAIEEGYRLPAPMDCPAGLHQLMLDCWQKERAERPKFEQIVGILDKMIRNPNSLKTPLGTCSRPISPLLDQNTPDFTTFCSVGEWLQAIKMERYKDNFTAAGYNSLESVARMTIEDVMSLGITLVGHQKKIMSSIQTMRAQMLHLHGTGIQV
CDK5/P25, sequence (Q00535 whole entry): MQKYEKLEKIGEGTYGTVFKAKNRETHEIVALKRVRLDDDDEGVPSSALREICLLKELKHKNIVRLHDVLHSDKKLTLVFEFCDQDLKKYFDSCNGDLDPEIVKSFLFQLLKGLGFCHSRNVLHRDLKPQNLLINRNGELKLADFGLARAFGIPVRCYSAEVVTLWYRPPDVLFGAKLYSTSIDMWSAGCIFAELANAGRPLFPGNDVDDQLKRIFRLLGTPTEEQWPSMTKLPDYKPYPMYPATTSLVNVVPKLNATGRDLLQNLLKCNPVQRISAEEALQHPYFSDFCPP
CDK5/P25, sequence (Q15078 99-307 partner limits assumed): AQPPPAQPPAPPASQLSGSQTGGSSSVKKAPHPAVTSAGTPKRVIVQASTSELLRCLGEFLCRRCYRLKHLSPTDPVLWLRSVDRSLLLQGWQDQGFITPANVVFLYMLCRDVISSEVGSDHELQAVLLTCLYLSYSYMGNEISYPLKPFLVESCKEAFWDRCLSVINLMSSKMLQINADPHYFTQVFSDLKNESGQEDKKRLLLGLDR

COc1cc(-c2cncc(-c3ccc(N4CCN(C)CC4)cc3)c2C)cc(F)c1C(N)=O [Compound 26a, 2-Fluoro-6-methoxy-4-(4-methyl-5-(4-(4-methylpiperazin-1-yl)phenyl)pyridin-3-yl)benzamide]
% enzyme activity at 1 μM (ALK1/ACVRL1): 2.65%
% enzyme activity (DLK/MAP3K12): 91.76%
% enzyme activity (EPHA7): 98.85%
% enzyme activity (GSK3b): 84.98%
% enzyme activity (MEKK2): 95.51%
remaining activity at 1 µM (ABL2/ARG): 97.3%
remaining activity at 1 µM (CAMK2d): 95.1%
remaining activity at 1 µM (CDK5/P25): 94.6%
remaining activity at 1 µM (DCAMKL2): 64.4%

COc1cc(-c2cncc(-c3ccc(N4C[C@@H](C)N(C)[C@@H](C)C4)cc3)c2C)cc(F)c1C(N)=O [Compound 26c, 2-Fluoro-6-methoxy-4-(4-methyl-5-(4-((3R,5S)-3,4,5-trimethylpiperazin-1-yl)phenyl)pyridin-3-yl)benzamide]
% enzyme activity at 1 μM (ALK1/ACVRL1): 4.67% and 4.38%
% enzyme activity (DLK/MAP3K12): 97.93%
% enzyme activity (EPHA7): 98.36%
% enzyme activity (GSK3b): 88.83%
% enzyme activity (MEKK2): 100.62%
remaining activity at 1 µM (ABL2/ARG): 97.1%
remaining activity at 1 µM (CAMK2d): 96.2%
remaining activity at 1 µM (CDK5/P25): 94.8%
remaining activity at 1 µM (DCAMKL2): 84.5%
